{
  "source": "patent US20220054494A1",
  "about": "“METHODS FOR TREATING BLADDER AND URETHRA DYSFUNCTION AND DISEASE” (University of Pittsburgh - Of the Commonwealth System of …, priority 2019, published 2022)",
  "format_in_all_cases": "in vivo, rat",
  "key": {"[1]": {"tested_on": "AVP receptor V1a", "assay": "Western immunoblotting, kidney V1a vasopressin receptor", "settings": "aged Fisher 344 rats; 8-AG 5 mg kg/day via drinking water, 1 month", "method": "Western immunoblotting and transmission electron microscopy: Following these testing paradigms, rats were deeply anesthetized, bladders were removed, and one half of each bladder (using the smooth muscle layer) was homogenized using Lysing Matrix D in a FASTPREP-24™ instrument (MP BIOMEDICALS™, Solon, Ohio) in HBSS (5 mM KCl, 0.3 mM KH2PO4, 138 mM NaCl, 4 mM NaHO3, 0.3 mM Na2HCO3, 0.3 mM Na2HPO4, 5.6 mM glucose and 10 mM Hepes, pH 7.4) containing complete protease inhibitor cocktail (1 tablet/10 ml, ROCHE™, Indianapolis, Ind.) and phosphatase inhibitor cocktail (SIGMA®, 1:100). Whole rat kidney was also homogenized using the same procedure. After centrifugation (13000 rpm; 15 min at 4° C.), the membrane protein fraction was prepared by suspending the membrane pellets in lysis buffer containing 0.3 M NaCl, 50 mM Tris-HCl (pH 7.6), 0.5% Triton X-100, and the same concentration of protease inhibitors as above. […] The protein concentrations of the combined supernatants were determined using the PIERCE™ BCA protein assay (THERMO SCIENTIFIC™, Rockford, Ill.). […] As a loading control, total protein per sample was determined using BIO-RAD™ Stain Free SDS-PAGE gel technology. UV-activated protein fluorescence was imaged on a CHEMIDOC™ MP (BIO-RAD™). […] The volume (intensity) of each protein species was determined and normalized to total protein using Image Lab software (BIO-RAD™)."}, "[2]": {"tested_on": "CYP-treated rats", "assay": "Abdominal mechanical pain threshold (Von Frey) in CYP cystitis model", "settings": "CYP (75 mg/kg i.p.) female Sprague Dawley rats; oral 8-AG 5 mg/kg for 1 week prior to CYP", "method": "Animals: Female Sprague Dawley rats were employed in this example (Charles River; Wilmington, Mass.). Three groups of animals were included. Group 1 received an i.p. injection of saline and was used as a control; groups 2 and 3 received an i.p. injection of cyclophosphamide (CYP, SIGMA-ALDRICH®, St Louis, Mo., day 0, 3, 6, sacrifice day 8, 75 mg/kg, i.p.) with group 3 treated with oral 8-AG (5 mg/kg/day; starting one week prior to CYP). CYP induced bladder inflammation and is a well-established pre-clinical model for BPS/IC.\nDetermination of mechanical pain threshold: Lower abdominal pain was evaluated using a mechanical hyperalgesia and allodynia test (Larid et al., Pain, 92:335-342, 2001; Minnet et al., PLoS One, 9:e104458, 2014). Briefly, animals were placed in individual chambers with a wire mesh floor and allowed to acclimate. This Von Frey test was performed in the lower abdomen and consists of delivering a constant pre-determined force with one of a series of Von Frey monofilaments (from 0.08 to 19.6 mN; Stoelting Co., Wood Dale, Ill., USA). Filaments were applied perpendicularly with enough strength to cause the monofilament to slightly bend. Each monofilament was tested five times, 5 s interval between each application. […]"}, "[3]": {"tested_on": "LC3", "assay": "Western immunoblotting, LC3 (lipidated form)", "settings": "aged rats; oral 8-AG 5 mg/kg/day, 6 weeks", "method": "Western immunoblotting: Following the testing paradigms, rats were deeply anesthetized, bladders as well as the proximal urethra were removed, and one half of each preparation was homogenized using Lysing Matrix D in a FastPrep 24 instrument (MP Biomedicals, Solon, Ohio) in HBSS [5 mM KCl, 0.3 mM KH2PO4, 138 mM NaCl, 4 mM NaHO3, 0.3 mM Na2HCO3, 0.3 mM Na2HPO4, 5.6 mM glucose, and 10 mM Hepes, pH 7.4 containing a complete protease inhibitor cocktail (1 tablet/10 ml, ROCHE®, Indianapolis, Ind.) and a phosphatase inhibitor cocktail (SIGMA®, 1:100)]. After centrifugation (13000 rpm; 15 min at 4° C.), the membrane protein fraction was prepared by suspending the membrane pellets in lysis buffer containing 0.3 M NaCl, 50 mM Tris-HCl (pH 7.6), and 0.5% Triton X-100 and the same concentration of protease inhibitors as above. The suspensions were incubated on ice and centrifuged (13000 rpm; 15 min at 4° C.). The protein concentrations of the combined supernatants were determined using the PIERCE® BCA protein assay (THERMO SCIENTIFIC®, Rockford, Ill.). […] As a loading control, total protein per sample was determined using Bio-Rad Stain Free SDS-PAGE gel technology. UV-activated protein fluorescence was imaged on a CHEMIDOC® MP (BIO-RAD®). […] The volume (intensity) of each protein species was determined and normalized to total protein using Image Lab software (BIO-RAD®)."}},
  "note": "Entries after “also recorded” stand apart in the source; their conditions may differ.",
  "data": [
    {"smiles": "Nc1nc2[nH]c(N)nc2c(=O)[nH]1", "note": "[8-AG, 8-Aminoguanine]", "values": [
      {"measurement": "V1a vasopressin receptor in kidney", "setting": "[1]", "result": "restored to a younger state; also recorded: restored to levels similar to the younger state"},
      {"measurement": "abdominal mechanical pain threshold", "setting": "[2]", "result": "returned to near control levels"},
      {"measurement": "LC3 (lipidated form) expression in detrusor", "setting": "[3]", "result": "partially restores expression toward younger state; also recorded: trend toward reversal"}
    ]}
  ]
}
